Common to all, as to format: cell-based
For test [1], the system named is Aspergillus niger ATCC 16404 spores. Put plainly: Sporicidal effect of test compounds in water. Conditions: 0.1% test compound, 7 days. The procedure: Aspergillus niger ATCC 16404 spores are added to water to obtain a density of 3×10^5 spores 1 ml. In order to prepare the spores, the test strain is grown for 5 days on potato dextrose agar at room temperature. The spores are harvested with a solution containing 0.1% Tween 80, peptone 0.1% and NaCl 0.85% and the spore concentration is adjusted to the density indicated above.
Test compounds are dissolved in dipropyleneglycol to a concentration of 20%.
These stock solutions are added to 10 ml aliquots of the spore suspension to obtain a final concentration of the test compounds of 0.1%. The sporicidal effect is shown by a reduction of spore counts after 7 days.
The reduction factor is determined as follows. Aliquots of the above prepared suspension of microorganisms (here: spore suspension prepared as described above) are plated on a suitable agar medium (see above) and the developing colonies are counted both for samples with test compound and for a negative probe (water). The count of the negative control is divided by the count of the test compound and thereby the reduction factor is determined. A negative control (water) accordingly has a reduction factor of 1 (no effect on the microorganism).

The subject of test [2] is Staphylococcus aureus (DSMZ 799) and Pseudomonas aeruginosa (ATCC 15442). Briefly: Bactericidal effect in a cosmetic cream (mixed inoculum 1:1). The note with it: cosmetic cream pH 5,5; 0.1% 4-hydroxybenzaldehyde, no parabens. The protocol:
(§1) A cosmetic cream (pH 5,5) for application to the human skin is formulated as follows (in % w/w): […]
(§2) Glyceryl-monostearate, Sweet almond oil, Cetyl-stearyl-alcohol and Glyceryl dilaurate are melted at 80° C. Xanthan gum is dispersed into glycerine. Arginine is dissolved in water and heated to 75° C. The Xanthan gum—glycerin suspension is added to the heated water phase, the heated oil phase is added and the suspension is stirred at 300 rpm for 10 min whilst being cooled down slowly. Finally, a homogeneous emulsion is made with a high speed homogenizer at 5000 rpm.
Test samples of cream contain different amounts of preservatives and/or preservative enhancer. The preservative and preservative enhancer is added to an aliquot of 10 g of the cream in 50 ml tubes in a concentration as shown in the table below. After addition of the preservative/preservative enhancer, the cream is thoroughly mixed to achieve a homogeneous distribution.
After 1-3 days of equilibration of the cream (storage at room temperature to achieve a homogenous partitioning of compounds between oil and water phase), […]
Aliquots of these suspended and diluted samples are plated on tryptic soy agar supplemented with 0.5% Tween 80 and then incubated for 24 h at 37° C. Surviving bacteria are counted.
(§3) The count of the negative control is divided by the count of the probe and thereby the reduction factor is determined. […]

Test [3] concerns Aspergillus niger ATCC 16404 spores. Put plainly: Sporicidal effect in a cosmetic cream. The note with it: cosmetic cream pH 5,5; 0.1% 4-hydroxybenzaldehyde, no parabens. The protocol: as §1, §2
Test samples of cream contain different amounts of preservatives and/or preservative enhancer. The preservative and preservative enhancer is added to an aliquot of 10 g of the cream in 50 ml tubes in a concentration as shown in the table below. After addition of the preservative/preservative enhancer, the cream is thoroughly mixed to achieve a homogeneous distribution. […]
After regular test intervals, samples of 1 g cream are removed and added to 20 ml of a neutralizer solution containing 0.2% lecithin, 2% Tween 80 and 0.5% NaCl. […] After 48 h to 72 h the number of surviving colony forming units (and therefore surviving spores) are counted.
as §3

This is an account of results in patent US20080260659A1, “Compositions” (GIVAUDAN SA, priority 2005, published 2008).

Consider `COc1ccc(C=O)cc1` [4-methoxy-benzaldehyde], for which the “Sporicidal effect / reduction of spore counts” value (from here on “Sporicidal effect / reduction”) in test [1] is on record as “No significant reduction of spore counts”.

As to `O=Cc1ccc(O)cc1` [4-hydroxybenzaldehyde], in test [1], the “Sporicidal effect / reduction” value is “No significant reduction of spore counts”. For the same compound, the “reduction factor 24 h bacteria” value in test [2] was 1. The “reduction factor 7 d fungal spores” value in test [3] turned out to be 1.

Consider `C=CCCCCCCCCO` [9-decenol, reference compound], for which the “Sporicidal effect / reduction” value in test [1] is given as “significant sporicidal effect”.

Consider `CC(CC=O)CCc1ccccc1` (stereo not drawn) [Mefranal, 3-methyl-5-phenylpentanal, reference compound], for which the “Sporicidal effect / reduction” value in test [1] is recorded as “significant sporicidal effect”.
